Assay [1] has as its target T1, human metabotropic glutamate receptor 2 (mGluR2) (Homo sapiens, UniProt Q14416).
T1 construct: expressed in transfected cells; co-expressing human SLC1A3), cell membrane fraction
Kind of assay: [35S]GTPγS binding assay (Affinity to mGluR2). Format: biochemical. Particulars: cell membrane fraction of HEK293 cells stably expressing human mGluR2; glutamic acid 10 μM. On the procedure: (Preparation of Cell Membrane Fraction of HEK293 Cells Stably Expressing Human Metabotropic Glutamate Receptor 2 (mGluR2))
HEK293 cells stably expressing human mGluR2 and human glutamate transporter SLC1A3 were cultured in a Dulbecco's modified Eagle's medium with 10% fetal bovine serum (50 units/mL of penicillin, 50 μg/mL of streptomycin, 60 μg/mL of geneticin, 400 μg/mL of hygromycin B and 2 mM of glutamine) at 37° C. under 5% CO2. Confluent cell cultures were washed twice with PBS(−), and then scraped off with a cell scraper, and subjected to centrifugal separation at 4° C. and 1500 rpm for 5 minutes for collecting cells. The centrifuged sediment (cell pellet) was homogenized in a 20 mM HEPES buffer containing 10 mM EDTA (pH 7.4) by using sonicator and centrifuged at 4° C. and 1500×g for 30 minutes. The supernatant (soluble fraction) was subjected to the centrifugal separation at 4° C. and 40,000×g for 30 minutes, and thus, insoluble fraction was obtained. After additional centrifugally washing the obtained fraction with 20 mM HEPES buffer containing 10 mM EDTA (pH 7.4), the pellet was centrifugally suspended with a 20 mM HEPES buffer containing 0.1 mM EDTA, and the cell membrane fraction was obtained by the centrifugal separation at 4° C. and 40,000×g for 30 minutes. The thus obtained cell membrane fraction was suspended in a 20 mM HEPES buffer containing 0.1 mM EDTA in a protein concentration of 3 mg/mL, which was stored at −80° C.
([^35S]GTPγS binding assay)
The frozen cell membrane fraction prepared as described above was thawed before use, and the resultant was diluted with a buffer for a binding assay (final concentrations: 20 mM HEPES, 100 mM NaCl, 1 mM MgCl2, 3 μM GDP, 300 μg/mL saponin, 0.1% BSA). The compound of each example was added to a cell membrane fraction containing 1.8 to 3 μg/assay of membrane protein on a plate, followed by incubation at room temperature for 30 minutes. Thereafter, with glutamic acid (in a final concentration of 10 μM) added thereto, incubation was performed at room temperature for 15 minutes, and thereafter, [^35S]GTPγS (in a final concentration of 0.8 kBq) and 588 μg WGA-SPA beads were added thereto, followed by incubation at room temperature for 1 hour. After the incubation, the plate was subjected to the centrifugal separation at 2,500 rpm and room temperature, and then, membrane cell binding radioactivity was measured with a top count.
A [^35S]GTPγS binding amount obtained by performing the above-described reaction in the absence of glutamic acid was defined as nonspecific binding, and a difference from a [^35S]GTPγS binding amount obtained in the presence of glutamic acid was defined as specific binding. On the basis of ratios of inhibiting the specific binding at various concentrations of the compounds of the respective examples, inhibition curves were obtained. Concentrations of the compounds of the respective examples at which the specific [^35S]GTPγS binding amount was suppressed by 50% (IC50 values) were calculated on the basis of the inhibition curves and shown in Table 3.
(GTPγS is a poorly hydrolysed GTP analogue; its binding reports G protein activation.)

Assay [2] concerns Long-Evans rats, cognitive impairment induced by scopolamine. Kind of assay: Novel object recognition (NOR) test in rats. Format: in vivo, rat. The following applies: oral; scopolamine hydrobromide 0.3 mg/kg i.p.; statistically significant difference in discrimination index vs scopolamine alone group. On the procedure: Six-week old male Long-Evans rats were used for this test. For 2 days before starting the test, the rats were acclimated to experimental operations such as administration and a test device (that is, a black or gray plastic cage with a width of 40 cm, a depth of 30 cm and a height of 45 cm). Each test compound was dissolved in a 0.1 N hydrochloric acid to be orally administered. Thirty minutes after the administration, scopolamine hydrobromide was intraperitoneally administered at a 0.3 mg/kg dose, so as to induce cognitive impairment. After another 30 minutes, each rat was acclimated in the test device for 3 minutes, and thereafter, two blocks in the same shape were put in the test device as acquisition trial, and exploring time for each block was measured for 5 minutes. Two hours after the acquisition trial, the rat was acclimated in the test device for 3 minutes, and thereafter, the same block as those used in the acquisition trial and a new block in a different shape were put in the cage for retention trial. The exploring time for each block was measured for 3 minutes, and a ratio of the exploring time for the newly used block to the sum of the exploring times for the respective blocks was calculated as a discrimination index. The thus obtained discrimination indexes were compared among a group of rats to which a medium alone was administered (medium group), a group of rats to which scopolamine alone was administered (scopolamine alone group) and a group of rats to which both the test compound and scopolamine were administered, so as to evaluate the action of the test compound on the novel object recognition function (cognitive function) of the rats.
Each discrimination index was shown as an average and a standard error. The statistical significance between the medium group and the scopolamine alone group was analyzed by the independent t-test. The statistical significance between the scopolamine alone group and each sample group was analyzed by one-way analysis of variance and then by Dunnett's multiple comparison test. The significance level was set to 5% on both sides. […] The analysis was carried out by using Prism 5 for Windows for Japanese, ver. 5.03. A minimum effective dose at which a statistically significant difference was found between a group suffering from the cognitive impairment induced by scopolamine and a group treated with each compound is shown in Table 4.

Usually IC50 stands for the concentration that inhibits the measured activity by half. Low readings indicate greater potency in that assay, high ones weaker potency in that assay.

T1 sequence (Q14416 19-872): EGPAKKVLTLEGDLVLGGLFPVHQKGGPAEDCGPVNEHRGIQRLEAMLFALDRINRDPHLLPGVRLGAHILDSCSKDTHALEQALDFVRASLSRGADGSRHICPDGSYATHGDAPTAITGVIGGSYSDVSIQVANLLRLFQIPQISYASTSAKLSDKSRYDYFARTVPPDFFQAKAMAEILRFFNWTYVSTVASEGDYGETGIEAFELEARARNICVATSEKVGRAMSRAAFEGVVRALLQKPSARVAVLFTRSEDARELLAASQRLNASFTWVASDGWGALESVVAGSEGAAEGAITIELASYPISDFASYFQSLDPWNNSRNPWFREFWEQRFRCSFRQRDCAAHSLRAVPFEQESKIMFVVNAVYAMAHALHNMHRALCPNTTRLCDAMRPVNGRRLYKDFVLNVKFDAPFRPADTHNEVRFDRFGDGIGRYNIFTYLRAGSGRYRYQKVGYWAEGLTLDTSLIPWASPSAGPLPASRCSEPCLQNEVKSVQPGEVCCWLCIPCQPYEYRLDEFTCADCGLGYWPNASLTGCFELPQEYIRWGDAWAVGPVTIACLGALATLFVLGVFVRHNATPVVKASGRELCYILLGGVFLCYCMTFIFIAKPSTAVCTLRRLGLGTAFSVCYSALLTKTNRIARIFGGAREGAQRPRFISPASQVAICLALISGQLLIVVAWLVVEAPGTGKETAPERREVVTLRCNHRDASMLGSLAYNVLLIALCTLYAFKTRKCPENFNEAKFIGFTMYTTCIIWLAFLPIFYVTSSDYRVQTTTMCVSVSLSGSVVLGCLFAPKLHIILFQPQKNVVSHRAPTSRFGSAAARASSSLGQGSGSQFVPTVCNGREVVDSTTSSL

The compound `CC(C)NS(=O)(=O)c1ccc(-c2nc(-c3ccc(F)cc3)n3c2CCO[C@H](C)C3)cc1` [Example 1, (R)-4-(3-(4-fluorophenyl)-6-methyl-5,6,8,9-tetrahydroimidazo[1,5-d][1,4]oxazepin-1-yl)-N-isopropylbenzenesulfonamide] registered a half-maximal inhibitory concentration (IC50) in assay [1] of 3.7 nM. Besides, the Minimum effective dose in assay [2] is given as 1 mg/kg, p.o. `COc1ccc(-c2nc(-c3ccc(S(=O)(=O)NC(C)(C)C)cc3)c3n2C[C@@H](CF)OCC3)cc1` [Example 2, (S)—N-(tert-butyl)-4-(6-(fluoromethyl)-3-(4-methoxyphenyl)-5,6,8,9-tetrahydroimidazo[1,5-d][1,4]oxazepin-1-yl)benzenesulfonamide] had an IC50 in assay [1] of 3.1 nM. In assay [2], the Minimum effective dose was 3 mg/kg, p.o. The compound `COc1ccc(-c2nc(-c3ccc(S(=O)(=O)NC4CCC4)cc3)c3n2C[C@@H](C)OCC3)cc1` [Example 3, (R)—N-cyclobutyl-4-(3-(4-methoxyphenyl)-6-methyl-5,6,8,9-tetrahydroimidazo[1,5-d][1,4]oxazepin-1-yl)benzenesulfonamide] displayed an IC50 in assay [1] of 5 nM. The Minimum effective dose in assay [2] is reported as 1 mg/kg, p.o.

Compound `COc1ccc(-c2nc(-c3ccc(S(=O)(=O)NC(C)C)cc3)c3n2C[C@@H](C)OCC3)cc1` [Example 8, (R)—N-isopropyl-4-(3-(4-methoxyphenyl)-6-methyl-5,6,8,9-tetrahydroimidazo[1,5-d][1,4]oxazepin-1-yl)benzenesulfonamide] had a 50% inhibitory concentration (IC50) in assay [1] of 3.1 nM. In addition, the Minimum effective dose in assay [2] is reported as 3 mg/kg, p.o. In turn, `CCNS(=O)(=O)c1ccc(-c2nc(-c3ccc(OC(F)F)cc3)n3c2CCO[C@H](CF)C3)cc1` [Example 59] came in with an IC50 in assay [1] of 3.9 nM. For `O=S(=O)(NC1CCC1)c1ccc(-c2nc(-c3ccc(OC(F)F)cc3)n3c2CCO[C@H](CF)C3)cc1` [Example 60], the IC50 in assay [1] came out at 4.6 nM. The IC50 values of the last two compounds are within 1.5-fold of each other. `CC1(NS(=O)(=O)c2ccc(-c3nc(-c4ccc(OC(F)F)cc4)n4c3CCO[C@H](CF)C4)cc2)CCC1` [Example 61] gave a half-maximal inhibitory concentration (IC50) in assay [1] of 3.7 nM.

In assay [1], `COc1ccc(-c2nc(-c3ccc(S(=O)(=O)NC(C)C)cc3)c3n2C[C@@H](C)OCC3)cc1F` [Example 62, (R)—N-isopropyl-4-(3-(3-fluoro-4-methoxyphenyl)-6-methyl-5,6,8,9-tetrahydroimidazo[1,5-d][1,4]oxazepin-1-yl)benzenesulfonamide] registered a concentration for half-maximal inhibition (IC50) of 4.3 nM. The IC50 values of the last two compounds are within 1.5-fold of each other.

`COc1ccc(-c2nc(-c3ccc(S(=O)(=O)NC(C)(C)C)cc3)c3n2C[C@@H](C)OCC3)cc1F` [Example 63] displayed a 50% inhibitory concentration (IC50) in assay [1] of 3.9 nM.

`Cc1ccc(-c2nc(-c3ccc(S(=O)(=O)NC(C)(C)C)cc3)c3n2C[C@@H](C)OCC3)cc1F` [Example 64] yielded an IC50 in assay [1] of 4.5 nM. Compound `Cc1ccc(-c2nc(-c3ccc(S(=O)(=O)NC(C)C)cc3)c3n2C[C@@H](C)OCC3)cc1F` [Example 65] had a 50% inhibitory concentration (IC50) in assay [1] of 6.7 nM. The IC50 values of the last two compounds are within 1.5-fold of each other. In turn, `C[C@@H]1Cn2c(-c3ccc(OC(F)F)c(F)c3)nc(-c3ccc(S(=O)(=O)NC(C)(C)C)cc3)c2CCO1` [Example 66] came in with an IC50 in assay [1] of 10.9 nM.

(Values after US20160052937A1, “Tetrahydroimidazo[1,5-d][1,4]oxazepine compound” (Eisai R&D Management Co., Ltd., priority 2014, published 2016).)
